Key:
A673 cells [1] = experiment: Comet assay; assay type: cell-based, human; settings: A673, 3h
Protocol: We used comet assay, which includes single cell gel electrophoresis to assess DNA breaks when exposed to radiation or DNA damaging agents. […] Olive moment (micrometers), a product of tail DNA% and the distance between the centroids of head and tail, is an accurate parameter of DNA damage. […] Gamma-H2AX (γH2AX) phosphorylation is the initial step in DNA damage response following double stranded breaks and is responsible for recruiting DNA repair proteins.
Comet assay was performed according to the protocol described earlier. […] The cells in agarose were transferred to slides coated with normal melting point agarose. The agarose-immobilized cells were lysed in alkaline solution and the agarose trapped DNA was electrophoresed. DNA was stained with ethidium bromide and image acquisition was done immediately. DNA damage quantification was performed using OpenComet v1.3, an open-source software plugin in Image J 1.47v software (NIH, USA) for automated analysis. Olive moment, which is the product of tail DNA% and the distance between the intensity-weighted centroids of head and tail was taken from the output for analysis.

DSRCT cell lines = experiment: Alamar Blue cell proliferation assay; assay type: cell-based; settings: Homo sapiens
Protocol: (§1) AlamarBlue® assay (Invitrogen, Carlsbad, CA, USA) was performed to evaluate anti-proliferative activity of the drugs in cell lines and primary cells. Cells were plated in 96-well plates ([…] in 200 μL of medium). After 12 h, one of the previously mentioned drugs was added to each well at the specified concentration and incubated for 72 h. At the end of the incubation period, 20 μL of stock solution (0.312 mg/mL) of the Alamar Blue was added to each well. The absorbance was measured using the Synergy H1 hybrid multi-mode microplate reader (BioTek, USA). The drug effect was quantified as the percentage of control absorbance at 540 nm and 585 nm. Optical density was determined for 3 replicates per treatment condition and cell proliferation in drug-treated cells was normalized to their respective controls. All experiments were performed in triplicate.
(§2) Data are presented as mean±S.E.M. of at least three independent experiments done in triplicate. The comparison of means between treated and control mice was performed using two-tailed T-test or ANOVA (for more than two groups) as implemented in GraphPad Prism (version 4; GraphPad Software). Graphpad Prism software was used to plot concentration-effect curves and determine the drug concentration that inhibited the growth of cell lines by 50% compared to the control (IC50). A p-value of 0.05 or less was considered significant. Combination index (CI) values, as calculated by CompuSyn software (Chou and Martin, 2007), were used to evaluate the interaction between BO-1055 and a second drug (Topotecan, SN38, Doxorubicin or PU-H71). The Chou-Talalay method was used to quantify the synergism (CI < 1), additive effect (CI = 1) and antagonism (CI > 1) of various drug combinations.

A673 cells [2] = experiment: Alamar Blue cell proliferation assay; assay type: cell-based; settings: Homo sapiens; A673, 72 h drug exposure
Protocol: as §1, §2

TC32 cells = experiment: Alamar Blue cell proliferation assay; assay type: cell-based; settings: Homo sapiens, TC-32; TC32, 72 h drug exposure
Protocol: as §1, §2

RH30 cells = experiment: Alamar Blue cell proliferation assay; assay type: cell-based; settings: Homo sapiens; RH30, 72 h drug exposure
Protocol: as §1, §2

U2OS cells = experiment: Alamar Blue cell proliferation assay; assay type: cell-based; settings: Homo sapiens, 72 h drug exposure
Protocol: as §1, §2

OSA cells = experiment: Alamar Blue cell proliferation assay; assay type: cell-based; settings: Homo sapiens, 72 h drug exposure
Protocol: as §1, §2

SAOS cells = experiment: Alamar Blue cell proliferation assay; assay type: cell-based; settings: Homo sapiens, 72 h drug exposure
Protocol: as §1, §2

A204 cells = experiment: Alamar Blue cell proliferation assay; assay type: cell-based; settings: Homo sapiens; A204, 72 h drug exposure
Protocol: as §1, §2

H526 cells = experiment: Alamar Blue cell proliferation assay; assay type: cell-based; settings: Homo sapiens, NCI-H526; H526 (small cell lung cancer)
Protocol: as §1, §2

osteosarcoma cell lines = experiment: Alamar Blue cell proliferation assay; assay type: cell-based; settings: Homo sapiens
Protocol: as §1, §2

[3] = system: Ewing sarcoma patient samples; experiment: Alamar Blue cell proliferation assay; assay type: cell-based, human
Text: Ewing sarcoma cell line A673, Prostate (PC-3, LNCaP, 22RV/HL2), colon (HCT-116), breast (MCF-7, MX-1), small cell lung cancer (H526) and renal (A-498, 786-0) cancer cell lines were purchased from American Type Culture Collection (ATCC, Manassas, VA). Dr. Marc Ladanyi (Department of Pathology, MSKCC) kindly provided the following cell lines: CHLA-9, TC32, RMS559 and TE-381. Dr. Gary Schwartz kindly provided the following osteosarcoma cell lines: OSA, U20S and SAOS. Dr. Constantine Markides, (CHRISTUS Stehlin Foundation for Cancer Research, TX) kindly provided Ewing sarcoma and desmoplastic small round cell tumor (DSRCT) cell lines, including CAR, ZUC, ORA, BER and BOD. Early cultures derived from Ewing sarcoma patient samples, including IARC-EW1, SIM-1 were obtained from the MSKCC monoclonal antibody core facility. […]
AlamarBlue® assay (Invitrogen, Carlsbad, CA, USA) was performed to evaluate anti-proliferative activity of the drugs in cell lines and primary cells. […] The absorbance was measured using the Synergy H1 hybrid multi-mode microplate reader (BioTek, USA). The drug effect was quantified as the percentage of control absorbance at 540 nm and 585 nm. Optical density was determined for 3 replicates per treatment condition and cell proliferation in drug-treated cells was normalized to their respective controls. […]

Structure (SMILES): CN(C)CCNC(=O)c1cccc(NC(=O)Nc2ccc(N(CCCl)CCCl)cc2)c1 [BO-1055]
- olive moment relative to radiation (XRT, 8Gy) (A673 cells [1]): comparable
- comet tail size (DNA breaks) (A673 cells [1]; increasing concentration): increased tail size
- IC50 (DSRCT cell lines): 2 to 3 µM
- IC50 (A673 cells [2]): 0.52 µM
- IC50 (TC32 cells): 0.6 µM
- IC50 (RH30 cells): 0.24 µM
- IC50 (U2OS cells): > 10 µM
- IC50 (OSA cells): > 10 µM
- IC50 (SAOS cells): > 10 µM
- IC50 (A204 cells): 0.08 µM
- IC50 (H526 cells): 0.25 µM
- IC50 (osteosarcoma cell lines): > 10 µM
- IC50 [3]: submicromolar

From article PMC5190008, “BO-1055, a novel DNA cross-linking agent with remarkable low myelotoxicity shows potent activity in sarcoma models” (Oncotarget, 2016)
